Converted amounts (≈) assume the structure as drawn.
What was measured:
Plasmodium falciparum [1] = test: Antiplasmodial activity against chloroquine-resistant Plasmodium falciparum K1 infected after 72 hrs by Malaria SYBR Green I-staining based fluorescence assay; assay type: functional, organism-based; details: K1, 72 h
Candida parapsilosis = test: Antifungal activity against Candida parapsilosis ATCC […] after 72 to 96 hrs by standard broth microdilution method; assay type: functional; details: Lodderomyces parapsilosis
Staphylococcus aureus = test: Antimicrobial activity against Staphylococcus aureus ATCC 25923 after 24 hrs by standard broth microdilution method; assay type: functional; details: ATCC 25923, 24 h
Pseudomonas aeruginosa = test: Antimicrobial activity against Pseudomonas aeruginosa ATCC BAA-427 after 24 hrs by standard broth microdilution method; assay type: functional; details: ATCC BAA-427, 24 h
Cryptococcus neoformans = test: Antifungal activity against Cryptococcus neoformans clinical isolate after 24 to 48 hrs by standard broth microdilution method; assay type: functional
Candida albicans = test: Antifungal activity against Candida albicans clinical isolate after 24 to 48 hrs by standard broth microdilution method; assay type: functional
[2] = tested on: Trichophyton mentagrophytes; test: Antifungal activity against Trichophyton mentagrophytes clinical isolate after 72 to 96 hrs by standard broth microdilution method; assay type: functional
Aspergillus fumigatus = test: Antifungal activity against Aspergillus fumigatus clinical isolate after 72 to 96 hrs by standard broth microdilution method; assay type: functional
Escherichia coli = test: Antimicrobial activity against Escherichia coli ATCC 9637 after 24 hrs by standard broth microdilution method; assay type: functional; details: ATCC 9637, 24 h
Plasmodium falciparum [3] = test: Antiplasmodial activity against chloroquine-sensitive Plasmodium falciparum 3D7 infected after 72 hrs by Malaria SYBR Green I-staining based fluorescence assay; assay type: functional, organism-based; details: 3D7, 72 h
Klebsiella pneumoniae = test: Antimicrobial activity against Klebsiella pneumoniae ATCC 27736 after 24 hrs by standard broth microdilution method; assay type: functional; details: ATCC 27736, 24 h
Sporothrix schenckii = test: Antifungal activity against Sporothrix schenckii clinical isolate after 72 to 96 hrs by standard broth microdilution method; assay type: functional
[4] = Selectivity index, ratio of IC50 for african green monkey Vero cells to IC50 for chloroquine-sensitive Plasmodium falciparum 3D7; assay type: toxicity, cell-based; details: read-out: Ratio IC50

Structure (SMILES) | IC50 (Plasmodium falciparum [1]) [nM] | MIC (Candida parapsilosis) [µg/mL] | MIC (Staphylococcus aureus) [µg/mL] | MIC (Pseudomonas aeruginosa) [µg/mL] | MIC (Cryptococcus neoformans) [µg/mL] | MIC (Candida albicans) [µg/mL] | MIC [2] [µg/mL] | MIC (Aspergillus fumigatus) [µg/mL] | MIC (Escherichia coli) [µg/mL] | IC50 (Plasmodium falciparum [3]) [nM] | MIC (Klebsiella pneumoniae) [µg/mL] | MIC (Sporothrix schenckii) [µg/mL] | selectivity ratio [4]
COc1ccc(Oc2ccc(N/C(=N/c3ccccc3)NCCCNc3ccnc4cc(Cl)ccc34)cc2)cc1 | 680 | 12.5 (≈ 22.6 µM) | 6.25 (≈ 11.3 µM) | > 50 | 25 (≈ 45.3 µM) | 25 (≈ 45.3 µM) | 12.5 (≈ 22.6 µM) | 25 (≈ 45.3 µM) | 6.25 (≈ 11.3 µM) | 36.6 | 12.5 (≈ 22.6 µM) | 12.5 (≈ 22.6 µM) | 97.8
COC(=O)/C(C)=C/c1ccc(Oc2ccc(N/C(=N/c3ccccc3)NCCCCNc3ccnc4cc(Cl)ccc34)cc2)cc1 | 76.7 | 25 (≈ 39.4 µM) | 50 (≈ 78.8 µM) | > 50 | 25 (≈ 39.4 µM) | 25 (≈ 39.4 µM) | 25 (≈ 39.4 µM) | > 50 | 25 (≈ 39.4 µM) | 94.4 | 50 (≈ 78.8 µM) | 25 (≈ 39.4 µM) | 91.8
Clc1ccc(Cl)c(Oc2ccccc2N/C(=N/c2ccccc2)NCCCNc2ccnc3cc(Cl)ccc23)c1 | 176 | 50 (≈ 84.6 µM) | 3.12 (≈ 5.28 µM) | > 50 | 25 (≈ 42.3 µM) | 12.5 (≈ 21.2 µM) | 12.5 (≈ 21.2 µM) | > 50 | 12.5 (≈ 21.2 µM) | 74.7 | 12.5 (≈ 21.2 µM) | 12.5 (≈ 21.2 µM) | 116
COC(=O)/C(C)=C/c1ccc(Oc2ccccc2N/C(=N/c2ccccc2)NCCCNc2ccnc3cc(Cl)ccc23)cc1 | 161 | > 50 | > 50 | > 50 | > 50 | > 50 | > 50 | > 50 | > 50 | 174 | > 50 | > 50 | 37.2
COC(=O)/C(C)=C/c1ccc(Oc2ccccc2N/C(=N/c2ccc(Cl)cc2)NCCNc2ccnc3cc(Cl)ccc23)cc1 | 419 | > 50 | 1.56 (≈ 2.44 µM) | > 50 | 50 (≈ 78.1 µM) | 50 (≈ 78.1 µM) | 50 (≈ 78.1 µM) | > 50 | 50 (≈ 78.1 µM) | 51.5 | > 50 | 50 (≈ 78.1 µM) | 46.2
COc1ccc(Oc2ccc(N/C(=N/c3cccc(Cl)c3)NCCCNc3ccnc4cc(Cl)ccc34)cc2)cc1 | 236 | 12.5 (≈ 21.3 µM) | 6.25 (≈ 10.7 µM) | > 50 | 25 (≈ 42.6 µM) | 6.25 (≈ 10.7 µM) | 6.25 (≈ 10.7 µM) | 25 (≈ 42.6 µM) | 6.25 (≈ 10.7 µM) | 49.6 | 12.5 (≈ 21.3 µM) | 6.25 (≈ 10.7 µM) | 158
Clc1ccc(Cl)c(Oc2ccccc2N/C(=N/c2ccccc2)NCCNc2ccnc3cc(Cl)ccc23)c1 | 95.8 | 50 (≈ 86.7 µM) | 12.5 (≈ 21.7 µM) | > 50 | > 50 | 50 (≈ 86.7 µM) | 25 (≈ 43.3 µM) | > 50 | 25 (≈ 43.3 µM) | 42.5 | 50 (≈ 86.7 µM) | 50 (≈ 86.7 µM) | 173
Clc1ccc(/N=C(\NCCCNc2ccnc3cc(Cl)ccc23)Nc2ccccc2Oc2cc(Cl)ccc2Cl)cc1 | > 800 | 50 (≈ 80 µM) | 6.25 (≈ 9.99 µM) | > 50 | 25 (≈ 40 µM) | 6.25 (≈ 9.99 µM) | > 50 | > 50 | 12.5 (≈ 20 µM) | 87.2 | > 50 | 25 (≈ 40 µM) | 112
COc1ccc(Oc2ccc(N/C(=N/c3ccc(Cl)cc3)NCCNc3ccnc4cc(Cl)ccc34)cc2)cc1 | 105 | 12.5 (≈ 21.8 µM) | 6.25 (≈ 10.9 µM) | > 50 | 25 (≈ 43.7 µM) | 12.5 (≈ 21.8 µM) | 12.5 (≈ 21.8 µM) | 25 (≈ 43.7 µM) | 6.25 (≈ 10.9 µM) | 69 | 12.5 (≈ 21.8 µM) | 6.25 (≈ 10.9 µM) | 122

From ChEMBL document CHEMBL3232804, “Synthesis and evaluation of new diaryl ether and quinoline hybrids as potential antiplasmodial and antimicrobial agents” (Bioorg Med Chem Lett, 2014)
